Assay results: patent publication US20150253330A1, “PRE-SELECTION OF SUBJECTS FOR THERAPEUTIC TREATMENT WITH AN HSP90 INHIBITOR BASED ON HYPOXIC STATUS” (Synta Pharmaceuticals Corp., priority 2012, published 2015)
“Also recorded” adds a separate entry of the source.

Key:
[1] = test system: HPAC and ASPC-1 xenograft; assay: In vivo tumor growth delay and angiogenic assay, pancreatic xenografts; design: species or system SCID mice; conditions: 100 mg/kg IV once a week for three weeks
Description: It's postulated that functional inhibition of Hsp90 by ganetespib can inhibit angiogenesis and growth in vitro and in vivo models of pancreatic cancer. PANC-1 and HPAC cell lines were treated with vehicle or G (50 nM) for 24 h and lysates were analyzed by Western blot. Egg CAM and matrigel plug assays were performed to quantify the effects of ganetespib on angiogenesis. Efficacy of ganetespib (100 mg/kg) was assessed in mice bearing HPAC and ASPC-1 xenograft.
In vivo tumor growth delay and angiogenic assay: Five-week-old SCID mice were divided into 4 groups with 10 animals in each group. First two groups received 100 μl of Ice cold matrigel medium containing ASPC-1 (1×10^6 cells/100 μl) and other two groups received HPAC cell lines subcutaneously. Once the tumor reached 100-120 mm^3, the groups 2 and 4 received ganetespib (100 mg/kg body weight) IV once a week for three weeks. […] Every other day, tumor was measured using vernier caliper scale for a total of five weeks, when the animals were sacrificed. Skin around the implanted matrigel tumor was removed carefully and the tumor with its surrounding was photographed under visible light.

[2] = test system: solid tumors; assay: Phase 1 trial of ganetespib in combination with docetaxel in solid tumors; type: in vivo, human
Description: A trial to evaluate three dose-level combinations of docetaxel and ganetespib, administered on a three-week cycle, with the primary objective of determining an optimal dose for future clinical trials was performed. Docetaxel was administered as a one hour IV infusion on day 1 and ganetespib was administered as a one hour IV infusion on days 1 and 15. The dose level combinations evaluated were 150 mg/m^2 and 60 mg/m^2; 150 mg/m^2 and 75 mg/m^2; and 200 mg/m^2 and 75 mg/m^2 for ganetespib and docetaxel respectively. The standard of care dose level for docetaxel was 75 mg/m^2. A total of 19 patients received at least one dose of study treatment at the cut-off time. The median number of cycles of treatment was 4, with a range of 1 to 11 cycles of treatment. No prophylactic treatment for neutropenia was used. The combination of ganetespib at 150 mg/m^2 and docetaxel at 75 mg/m^2 was selected as the recommended dose.

[3] = test system: SUM149 inflammatory breast cancer (IBC) cells; assay: 24 hr viability assay, inflammatory breast cancer cells; type: cell-based; conditions: 24 hr after exposure, FIG. 2
Description: Ganetespib was assayed in inflammatory breast cancer (IBC), a rare but aggressive form of breast cancer distinct from the subtypes presented above.

[4] = test system: KRAS mutant NSCLC cell lines; assay: Combinatorial viability analysis in KRAS mutant NSCLC cell lines; type: cell-based
Description: For combinatorial analysis, cells were seeded in 96-well plates at a predetermined, optimum growth density for 24 h prior to the addition of drug or vehicle to the culture medium. Drug combinations were applied at a non-constant ratio over a range of concentrations for 72 or 96 hours. […] Cell viability was assessed by either AlamarBlue® (Invitrogen, Carlsbad, Calif.) or CellTiter-Glo® assays and normalized to vehicle controls. For each combination study, the level of growth inhibition (fraction affected) is plotted relative to vehicle control. Data are presented as one relevant combination point and the corresponding single agent data for each cell line tested.

[5] = test system: SNU-1; assay: 72 hr viability by Syto60, gastric cell line; type: cell-based; conditions: Homo sapiens, SNU1, Syto60 (lower), read-out: ganetespib IC50
[6] = test system: locally advanced or MBC; assay: Phase 2 trial in metastatic breast cancer (MBC); type: in vivo, human
Description: Patients with locally advanced or MBC were treated with single agent of ganetespib at 200 mg/m^2 on a cycle of once weekly for 3 weeks, one week off, on a 28 day cycle. The primary endpoint of the trial was overall response rate using RECIST 1.1. Patients with HER2+ breast cancer were required to have received prior therapy with trastuzumab. No more than 3 lines of chemotherapy in the metastatic setting were permitted, but there was no limit on prior lines of hormone therapy. Patients were evaluated for response after 2 cycles. The trial used a Simon two-stage design requiring at least 3 responses among the first 22 patients, to allow expansion to a total of 40 patients. A total of 22 patients were treated with a median age of 51 years (38 to 70) and the following subtypes: 13 HER2+ (10 ER+/HER2+; 3 ER−/HER2+), 6 ER+/HER2−, and 3 ER−/PR−/HER2− (TNBC).

[7] = test system: Hsp90 client proteins; assay: Western blot of Hsp90 client proteins in MKN45 cells; type: cell-based
[8] = test system: Detroit 562 H/N cancer cells; assay: Single agent viability assay, 72 hr, head and neck cancer cells; type: cell-based
Text: Head and neck (H/N) cancer refers to a group of biologically similar cancers originating from the upper autodigestive tract. First line therapies include EGFR inhibitors and platins. Modulation of EGFR and other client proteins by ganetespib was investigated in Detroit 562 H/N cancer cells.

[9] = test system: SNU-5; assay: 72 hr viability by Syto60, gastric cell line; type: cell-based; conditions: Homo sapiens, Syto60 (lower), read-out: ganetespib IC50
[10] = test system: Chk1 and Chk2 phosphorylation; assay: Western blot of Chk1 and Chk2 phosphorylation after bleomycin in Detroit 562 cells; type: cell-based; conditions: Detroit 562, 100 nM ganetespib 24 hours prior to bleomycin (5 μM)
Description: Protein expression was measured at the indicated time points after bleomycin treatment.
Cell extracts from Detroit 562 head and neck cancer cells were treated with 100 nM of ganetespib 24 hours prior to receiving the DNA damaging agent bleomycin (5 μM). Protein expression was measured at the indicated time points after bleomycin treatment.

[11] = test system: GCIY; assay: 72 hr viability by Syto60, gastric cell line; type: cell-based; conditions: Homo sapiens, Syto60 (lower), read-out: ganetespib IC50
[12] = human pancreatic tumor xenografts

## CC(C)c1cc(-c2nnc(O)n2-c2ccc3c(ccn3C)c2)c(O)cc1O [ganetespib]
[1]; [12]
  Angiogenesis in vivo: inhibition of angiogenesis in vivo; also recorded: decreases angiogenesis
  Tumor growth: significant tumor growth delay; also recorded: significantly inhibits tumor growth
[1]; SCID mice
  Deaths from the treatment: None of the animals died
[2]; four patients, ganetespib in combination with docetaxel
  Febrile neutropenia: 22%
[2]; ganetespib in combination with docetaxel
  Neutropenia (most common adverse event): 67%
[2]; in combination with docetaxel at 75 mg/m^2
  Recommended dose of ganetespib: 150 mg/m^2
[2]; nine patients, ganetespib in combination with docetaxel
  Serious adverse events: 50%
[2]; one patient with cancer of the parotid gland, ganetespib with docetaxel
  Shrinkage of target tumor lesions: over 50%
[2]; patients
  Effect of ganetespib on docetaxel pharmacokinetics: no effect
  Pharmacokinetics of ganetespib alone versus prior to docetaxel: pharmacokinetic similarity
[3]
  Anticancer activity against SUM149 cells: considerable anticancer activity
[4]; ganetespib combined with alkylating agents
  Increase in cell death versus monotherapy: ≤ 61%
[4]; ganetespib combined with anti-mitotics
  Increase in cell death versus monotherapy: up to 44%
[4]; ganetespib combined with topoisomerase inhibitors
  Increase in cell death versus monotherapy: ≤ 26%
[4]; low dose of ganetespib combined with MEK inhibitors
  Greater activity than monotherapy: up to 77%
[4]; low dose of ganetespib combined with PI3K/mTOR inhibitors
  Greater activity than monotherapy: ≤ 42%
[5]
  IC50: 6 nM
[6]; ER+/HER2− (N = 6)
  CBR (CR + PR + SD > 6 months): 0
  CR: 0
  ORR: 0
  PR: 0
[6]; HER2+ (N = 13)
  CBR (CR + PR + SD > 6 months): 2 (9%)
  CR: 0
  ORR: 2 (9%)
  PR: 2
[6]; TNBC (N = 3)
  CBR (CR + PR + SD > 6 months): 0
  CR: 0
  ORR: 0
  PR: 0
[6]; Total (N = 22)
  CBR (CR + PR + SD > 6 months): 2 (9%)
  CR: 0
  PR: 2 (9%)
[6]; Total (N = 22), 200 mg/m^2 once weekly for 3 weeks, one week off
  ORR: 2 (9%)
[6]; single agent, expected GI toxicity mild in nature and manageable
  Tolerability: well tolerated
[7]
  Effect on Hsp90 client proteins by western blot: complete degradation of MET and IGF-IR
[8]; Detroit 562
  Cell viability after a 72 hr exposure: A fraction of cells remained viable
[8]; Homo sapiens, Detroit 562, single agent viability, 72 hr
  IC50: 42 nM
[9]
  IC50: 31 nM
[10]
  Bleomycin-induced Chk1 and Chk2 phosphorylation: blocked
[11]
  IC50: 9 nM
